Literature values, collected in US12364661B2, “Deformable nano-scale vehicles (DNVS) for trans-blood brain barrier, trans-mucosal, and transdermal drug delivery” (The Regents of the University of California, priority 2015, dated 2025).

Details: measured experimentally

## CCCN[C@H]1CCc2nc(N)sc2C1 [Pramipexole, pramipexole]
  log P: 0.4
